Measured values taken from ChEMBL document CHEMBL6103654, “Design, Biological Characterization, and Discovery of Capromorelin Derivatives as Oral Growth Hormone Secretagogue Receptor Type 1a Agonist for the Treatment of Growth Hormone Deficiency” (J Med Chem, 2025).
Activity calls are given as the source filed them. The calls are words filed in the database; no cut-off is given here.

How the values were obtained:
Rattus norvegicus [1] = test: Induction of growth hormone level in adult Sprague-Dawley rat blood by measuring AUC(0 to 40 mins) at 0.2 mg/kg, po administered as single dose by ELISA method (reference value: 7.0+/-1.7 ng/mL); type: functional, organism-based
[2] = Oral bioavailability in male monkey at 2 mg/kg administered as single dose measured after 4 hrs; type: ADME, organism-based, Macaca mulatta; conditions: rhesus monkey, in vivo
CHO = test: Agonist activity at human GHSR expressed in CHO cells at maximum concentration incubated for 60 min by FLIPR assay relative to control; type: cell-based; conditions: filed as agonist
[3] = Genotoxicity in Salmonella typhimurium TA98 by Ames test; type: toxicity; conditions: salmonella enterica subsp. enterica serovar typhimurium
[4] = Plasma protein binding in rat assessed as unbound fraction measured after 6 hrs by dialysis method; type: ADME, cell-free
Rattus norvegicus [5] = test: Induction of growth hormone level in 4 week-old male Sprague-Dawley rat assessed as increase in body length at 2.5 mg/kg, po measured after 10 days; type: functional, organism-based; conditions: time 10.0 day
Rattus norvegicus [6] = test: In vivo agonist activity at GSHR in Sprague-Dawley rat assessed as increase in food consumption at 10 to 100 mg/kg, po administered once daily for 14 days; type: functional, organism-based; conditions: dose 10-100 mg/kg, time 14.0 day
Rattus norvegicus [7] = test: Induction of growth hormone level in Juvenile Sprague-Dawley rat blood at 0.2 mg/kg, po administered as single dose measured after 10 mins by ELISA method (reference value: 23.2+/-5.6 ng/mL); type: functional
[8] = Half life in male mouse at 1 mg/kg, iv administered as single dose measured after 4 hrs; type: ADME, organism-based; conditions: in vivo
[9] = Toxicity in Sprague-Dawley rat assessed as change in hepatic structure by measuring hepatic lobules at 10 to 100 mg/kg, po administered once daily for 14 days; type: organism-based; conditions: in vivo, 336 h, dose 10-100 mg/kg, time 14 day
Rattus norvegicus [10] = test: Induction of growth hormone level in adult Sprague-Dawley rat blood at 0.2 mg/kg, po administered as single dose measured after 20 mins by ELISA method (reference value: 4.9+/-1.1 ng/mL); type: functional
Cytochrome P450 2C9 = Cytochrome P450 2C9 (Homo sapiens, UniProt P11712); test: Inhibition of CYP2C9 in human liver microsome incubated for 5 min in presence of NADPH by UPLC-MS/MS analysis; type: ADME, microsomes
Cytochrome P450 2C9, sequence (P11712 whole entry): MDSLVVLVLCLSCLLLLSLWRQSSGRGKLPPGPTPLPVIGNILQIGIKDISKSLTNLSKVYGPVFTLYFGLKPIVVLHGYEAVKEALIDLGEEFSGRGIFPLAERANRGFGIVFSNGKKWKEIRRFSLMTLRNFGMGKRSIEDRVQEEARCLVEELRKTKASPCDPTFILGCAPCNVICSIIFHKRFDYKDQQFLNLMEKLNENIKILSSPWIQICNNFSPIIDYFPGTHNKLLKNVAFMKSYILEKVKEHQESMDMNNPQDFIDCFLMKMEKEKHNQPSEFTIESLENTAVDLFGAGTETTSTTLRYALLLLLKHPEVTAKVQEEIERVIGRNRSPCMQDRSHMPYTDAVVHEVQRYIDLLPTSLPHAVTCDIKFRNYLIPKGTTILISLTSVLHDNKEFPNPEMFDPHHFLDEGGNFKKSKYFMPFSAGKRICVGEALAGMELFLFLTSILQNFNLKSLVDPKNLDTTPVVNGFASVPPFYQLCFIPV

[11] = target: Growth hormone secretagogue receptor type 1 (Rattus norvegicus) (UniProt O08725); test: Agonist activity at rat GHSR expressed in CHO cells at maximum concentration incubated for 60 min by FLIPR assay relative to control; type: functional, cell-based; conditions: filed as agonist
Growth hormone secretagogue receptor type 1 (Rattus norvegicus), sequence (O08725 whole entry): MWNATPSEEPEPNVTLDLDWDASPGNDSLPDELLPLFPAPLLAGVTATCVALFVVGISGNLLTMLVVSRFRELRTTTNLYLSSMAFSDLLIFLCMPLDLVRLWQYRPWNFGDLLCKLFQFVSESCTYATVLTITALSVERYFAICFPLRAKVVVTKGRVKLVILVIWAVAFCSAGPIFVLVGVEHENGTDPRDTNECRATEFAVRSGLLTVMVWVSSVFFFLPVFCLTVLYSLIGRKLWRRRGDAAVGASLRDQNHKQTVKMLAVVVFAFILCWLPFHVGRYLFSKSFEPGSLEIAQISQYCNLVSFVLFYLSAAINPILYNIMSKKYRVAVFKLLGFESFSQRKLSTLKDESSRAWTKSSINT

[12] = Agonist activity at monkey GHSR expressed in CHO cells incubated for 60 min by FLIPR assay; type: cell-based; conditions: Macaca mulatta, 1 h
Rattus norvegicus [13] = species: Rattus norvegicus; test: Induction of growth hormone level in 6 week-old Sprague-Dawley rat assessed as increase in body length measured after 10 days; type: functional, organism-based; conditions: time 10.0 day
Rattus norvegicus [14] = test: Induction of growth hormone level in Juvenile Sprague-Dawley rat blood at 0.2 mg/kg, po administered as single dose measured after 1 hr by ELISA method (reference value: 45.2+/-12.5 ng/mL); type: functional
[15] = Plasma protein binding in dog assessed as unbound fraction measured after 6 hrs by dialysis method; type: ADME, cell-free, Canis lupus familiaris
[16] = Tmax in male Sprague-Dawley rat at 2 mg/kg, po administered as single dose measured after 4 hrs; type: ADME, organism-based; conditions: in vivo
Rattus norvegicus [17] = test: Induction of growth hormone level in adult Sprague-Dawley rat blood at 0.2 mg/kg, po administered as single dose measured after 40 mins by ELISA method (reference value: 14.4+/-6.9 ng/mL); type: functional
Rattus norvegicus [18] = test: Induction of growth hormone level in Juvenile Sprague-Dawley rat blood at 0.5 mg/kg, po administered as single dose measured after 2 hrs by ELISA method (reference value: 26.5+/-7.3 ng/mL); type: functional
Rattus norvegicus [19] = test: Induction of growth hormone level in 4 week-old female Sprague-Dawley rat assessed as increase in body length at 2.5 mg/kg, po measured after 10 days; type: functional, organism-based; conditions: time 10.0 day
[20] = AUC in male mouse at 2 mg/kg, po administered as single dose measured after 4 hrs; type: ADME, organism-based; conditions: in vivo
Rattus norvegicus [21] = test: Induction of growth hormone level in Juvenile Sprague-Dawley rat blood at 0.5 mg/kg, po administered as single dose measured immediately by ELISA method (reference value: 28.5+/-8.7 ng/mL); type: functional
Rattus norvegicus [22] = test: Induction of growth hormone level in Juvenile Sprague-Dawley rat blood at 0.1 mg/kg, po administered as single dose measured after 2 hrs by ELISA method (reference value: 26.5+/-7.3 ng/mL); type: functional
[23] = Metabolic stability in rat liver microsome assessed as intrinsic clearance at 1 uM measured upto 60 mins in presence of NADPH by LC-MS/MS analysis; type: ADME; conditions: liver microsomes, read-out: CLH
Cytochrome P450 3A4 = Cytochrome P450 3A4 (Homo sapiens, UniProt P08684); test: Inhibition of CYP3A4 in human liver microsome using midazolam as substrate incubated for 5 min in presence of NADPH by UPLC-MS/MS analysis; type: ADME, microsomes
Cytochrome P450 3A4, sequence (P08684 whole entry): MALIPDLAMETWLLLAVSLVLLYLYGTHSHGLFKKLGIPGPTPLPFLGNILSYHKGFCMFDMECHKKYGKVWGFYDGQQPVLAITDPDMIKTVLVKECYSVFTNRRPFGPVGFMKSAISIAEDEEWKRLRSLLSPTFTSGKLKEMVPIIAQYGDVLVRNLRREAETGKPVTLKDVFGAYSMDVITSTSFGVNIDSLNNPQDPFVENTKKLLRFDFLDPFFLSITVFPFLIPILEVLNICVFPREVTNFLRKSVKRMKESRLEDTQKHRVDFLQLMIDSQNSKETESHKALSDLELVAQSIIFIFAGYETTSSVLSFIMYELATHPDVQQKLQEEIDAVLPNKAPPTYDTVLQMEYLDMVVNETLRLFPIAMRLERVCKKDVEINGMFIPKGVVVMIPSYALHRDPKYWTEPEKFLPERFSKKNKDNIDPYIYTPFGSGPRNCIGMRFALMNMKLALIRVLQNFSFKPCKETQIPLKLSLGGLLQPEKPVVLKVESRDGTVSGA

[24] = Plasma protein binding in human assessed as unbound fraction measured after 6 hrs by dialysis method; type: ADME, cell-free
[25] = target: T1, 5-hydroxytryptamine receptor 3A (Homo sapiens, UniProt P46098); test: Inhibition of human HTR3A by fluorimetry analysis
T1 sequence (P46098 whole entry): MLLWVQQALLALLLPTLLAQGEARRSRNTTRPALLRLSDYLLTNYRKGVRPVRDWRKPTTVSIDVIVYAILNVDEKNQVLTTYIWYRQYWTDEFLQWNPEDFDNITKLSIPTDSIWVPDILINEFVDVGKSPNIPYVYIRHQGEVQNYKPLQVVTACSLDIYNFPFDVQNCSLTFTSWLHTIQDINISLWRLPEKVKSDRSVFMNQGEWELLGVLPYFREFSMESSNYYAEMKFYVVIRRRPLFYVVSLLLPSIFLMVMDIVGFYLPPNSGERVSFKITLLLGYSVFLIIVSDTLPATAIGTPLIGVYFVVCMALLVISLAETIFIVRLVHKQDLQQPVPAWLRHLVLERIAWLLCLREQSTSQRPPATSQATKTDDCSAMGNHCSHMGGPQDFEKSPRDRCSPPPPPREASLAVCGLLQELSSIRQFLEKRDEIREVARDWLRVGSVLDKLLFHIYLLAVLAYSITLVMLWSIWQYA

Rattus norvegicus [26] = test: Induction of growth hormone level in adult Sprague-Dawley rat blood at 0.5 mg/kg, po administered as single dose measured after 10 mins by ELISA method (reference value: 13.7+/-7.2 ng/mL); type: functional
[27] = Oral bioavailability in male mouse at 2 mg/kg administered as single dose measured after 4 hrs; type: ADME, organism-based; conditions: in vivo
Rattus norvegicus [28] = test: Induction of growth hormone level in Juvenile Sprague-Dawley rat blood at 0.5 mg/kg, po administered as single dose measured after 20 mins by ELISA method (reference value: 29.1+/-8.6 ng/mL); type: functional
Rattus norvegicus [29] = test: Induction of growth hormone level in adult Sprague-Dawley rat blood at 0.1 mg/kg, po administered as single dose measured after 20 mins by ELISA method (reference value: 4.9+/-1.1 ng/mL); type: functional
[30] = Genotoxicity in Salmonella typhimurium TA1537 by Ames test; type: toxicity; conditions: salmonella enterica subsp. enterica serovar typhimurium

Question: Which results are given for CC(C)(N)C(=O)N[C@H](COCc1ccccc1)C(=O)N1CCC2=NN(C3CC3)C(=O)[C@]2(Cc2ccccc2)C1?
Answer: AUC (Rattus norvegicus [1]): 62.6 ng·h/mL; F [2]: 15.88%; Activity (CHO): 152%; Activity [3]: Non-toxic; fraction unbound at 6 h [4]: 0.673; Activity (Rattus norvegicus [5]): Active; Activity (Rattus norvegicus [6]): Active; Activity (Rattus norvegicus [7]): 200.8 ng/mL; half-life [8]: 16.2 min; Activity [9]: Non-toxic; Activity (Rattus norvegicus [10]): 73.2 ng/mL; IC50 (Cytochrome P450 2C9): > 30 µM; Activity [11]: 96.7%; EC50 [12]: 46 pM; Activity (Rattus norvegicus [13]): Dose-dependent-effect; Activity (Rattus norvegicus [14]): 45.9 ng/mL; fraction unbound at 6 h [15]: 0.563; Tmax [16]: 15 min; Activity (Rattus norvegicus [17]): 26 ng/mL; Activity (Rattus norvegicus [18]): 34.4 ng/mL; Activity (Rattus norvegicus [19]): Active; AUC at 4 h [20]: 93.1 ng·h/mL; Activity (Rattus norvegicus [21]): 42.8 ng/mL; Activity (Rattus norvegicus [22]): 36.7 ng/mL; microsomal CLint at 1 µM [23]: 140 µL/min/mg; IC50 (Cytochrome P450 3A4): > 30 µM; fraction unbound at 6 h [24]: 0.695; IC50 [25]: 3.06 µM; Activity (Rattus norvegicus [26]): 238.6 ng/mL; bioavailability [27]: 33.9%; Activity (Rattus norvegicus [28]): 223.2 ng/mL; Activity (Rattus norvegicus [29]): 74.5 ng/mL; Activity [30]: Non-toxic
